Consider one compound from patent US12023308B2, “Agents for reversing toxic proteinopathies” (THE BROAD INSTITUTE, INC., priority 2019, dated 2024).

Entries after “also recorded” stand apart in the source; their conditions may differ.

One data set is described as follows: in vivo. As to conditions: mouse. As for the experimental part: 1) A pharmacokinetic study was performed by WuXi AppTec (Hong Kong) in fasted male 129S2/SvPasCrl mice (study #400565-20170331-MPK) to determine the oral bioavailability of BRD-4780. A single dose of BRD-4780 was administered at 3.0 mg/kg intravenously (i.v.) or 10.0 mg/kg orally (p.o) in a clear solution of 10% HP-β-CD in saline. Blood was collected serially from n=3 mice per dose group at eight time points post dose administration (0.25, 0.5, 1, 2, 4, 6, 8 and 24 hours) and plasma was obtained by centrifugation. Plasma drug concentration was determined by LC-MS/MS and reported as BRD-4780 ng/mL for plasma and ng/mg for kidney tissue, and plotted as the mean±standard deviation concentration (FIG. 11A). Standard pharmacokinetic parameters were calculated (FIG. 11B).

A further data set addresses T1, Nischarin (Homo sapiens, UniProt Q9Y2I1).
T1 construct: Densitometric analysis of Nischarin abundance after treatment of P cells with BRD-4780 (5 μM, 1 hour) or DMSO; endogenous in cells; host or cells: P cells
The data set can be described thus: Cellular thermal shift assay (CETSA) for Nischarin in P cells. As to conditions: 5 μM, 1 hour. The class given is binding. As for the experimental part: CETSAs were performed as previously described (Jafari et al., 2014; Reinhard et al., 2015). In brief, P cells were treated in the presence or absence of BRD-4780 for 1 hr, harvested (trypsinized), washed in PBS, resuspended in PBS (containing protease inhibitors) and distributed in 0.2 ml PCR tubes (100 μl; 600,000 cells). Cells were incubated at their designated temperatures for 3 min, then at 25° C. for 3 min and lysed by the addition of 1% NP-40. Immediately thereafter, samples were snap frozen and thawed using thermal cycler set at 25° C. Samples were spun at 20′000×g for 20 min (4° C.) to remove precipitated protein and the supernatant was analyzed by Western blot to examine the TMED9/Nischarin thermal stability.

Another data set relates to rhodopsin P23H. The data set can be described thus: GFP fluorescence in N cells expressing rhodopsin P23H-GFP. The class given is cell-based, human. As to conditions: 5 μM, 24 hours. As for the experimental part:
N cells plated in 96-well plates were transfected with 20 ng/well of P23H mutant rhodopsin-GFP plasmid DNA using Lipofectamine 3000 (Thermo Fisher Scientific®). Eight hr post-transfection, the cells were washed and processed as described below.
For the GFP-rhodopsin experiments (FIGS. 15D and 15E), cells were identified by digital phase contrast. GFP signal was calculated only in cells expressing GFP signal above a minimal background (to identify successfully transfected cells) and the mean intensity was averaged for each well.
Detection of MUC1-fs in P cells at baseline and following secretory pathway perturbations was performed using immunoblot and IF analyses. For immunoblot experiments (FIGS. 5E and 13D), P cells were grown in 6-well plates to high confluence. For IF experiments (FIGS. 5B-5D and 13A-13C), P cells were plated in 384-well plates at 12,000 cells/well. Following 24 hr, cells were treated with 5 μM BRD-4780 or DMSO alone, or in combination with 100 nM Bafilomycin A (B1793, Sigma-Aldrich), or 200 ng/mL Brefeldin A (B7651, Sigma-Aldrich) for a maximum period of 24 hr as indicated. For TMED9 or Nischarin depletion experiments, transduced/transfected P cells were plated either in 96-well plates at 60,000 cells/well for IF (FIGS. 6C, 6D and 14B), or grown in 6-well plates to high confluence for immunoblot detection (FIGS. 6B and 14C). […]

Data set [1] can be described thus: Liver microsomes stability. The class given is in vitro ADME. In general terms: Liver microsomes are vesicles of endoplasmic reticulum, rich in cytochrome P450 enzymes.
Experimental: Stability was determined at 37° C. at 1 hour in liver microsomes. Each compound was prepared in duplicate at 1 μM in liver microsomes diluted 50/50 (v/v) with PBS pH 7.4. After addition of compounds to microsome mixture, the plate was sealed and vortexed and 100 µL of each sample was added to 3004 acetonitrile (with internal standard). Assay plate was incubated at 37° C. for 1 hr with a 350 rpm orbital shake, and following the hour 1004 of each sample was added to 300 μL acetonitrile (with internal standard). After quenching, samples were refrigerated for at least 1 hour. The samples were centrifuged (32×G) to pellet precipitated particulates and an aliquot of supernatant was diluted 50/50 (v/v) with water. The resulting solution was analyzed by UPLC-MS/MS with compounds detected by MRM detection on a triple quadrupole mass spectrometer. The compound peak areas in the 0 and 1 hour samples, -NADPH sample, and no compound control sample were compared to determine a percent remaining. Percent remaining in microsomes was calculated through the following equation: % remaining=[area (1 hr)/area (0 hr)]×100. (LC System, Waters Acquity I-Class; MS System, AB Sciex Triple Quad 4500; Column, Waters Acquity UPLC BEH C18, 1.7 μm, 2.1×50 mm; Mobile Phase A, Water with 0.1% formic acid; Mobile Phase B, Acetonitrile with 0.1% formic acid; Flow Rate, 0.90 mL/min; Column Temperature, 55° C.).
The subject of another data set is MUC1-fs. The data set can be described thus: MUC1-fs immunofluorescence high-content imaging assay in P cells. The class given is cell-based, human. As to conditions: read-out: EC50 for removal of MUC1-fs (IF); P cells treated 48 hours.
Another data set relates to P cells. The data set can be described thus: P cell viability upon THP treatment (live imaging, rescue). The class given is cell-based, human. As to conditions: P cells.
The conditions of data set [2]: Munk et al., 1996; cited from earlier work.
The nature of data set [3]: Plasma protein binding (equilibrium dialysis). The class given is in vitro ADME. Background: In equilibrium dialysis only unbound substance equilibrates across the membrane.
Experimental: Plasma protein binding was determined by equilibrium dialysis using a Rapid Equilibrium Dialysis (RED) device (Pierce Biotechnology). Each compound was prepared in duplicate at 5 μM in plasma (0.95% acetonitrile, 0.05% DMSO) and added to one side of the membrane with PBS pH 7.4 added to the other side. Compounds were incubated at 37° C. for 5 hr with a 350 rpm orbital shake. After incubation, an aliquot was taken from each side of the membrane and quenched by adding acetontrile to a 3:1 ratio (v/v, ACN:plasma). After quenching, samples were centrifuged (32×G) to pellet precipitated particulates and an aliquot of supernatant was diluted 50/50 (v/v) with water. The resulting solution was analyzed by UPLC-MS/MS with compounds detected by MRM detection on a triple quadrupole mass spectrometer. The compound peak area on the buffer side of the membrane was compared to the peak area on the plasma side of the membrane to determine percent bound. Percent bound in plasma was calculated through the following equations: % free=[area (buffer)/area (plasma)]×100. % bound=100−% free.
For the next data set, the system named is total MUC1 mRNA. The data set can be described thus: MUC1 transcription assay (RT-PCR profiling screen) in P cells. The class given is cell-based, human. As to conditions: P cells, 24 hours. How it is done: qPCR was performed using a previously described protocol (Bittker, 2012). P cells seeded at 2000 cells/well in 384-well, clear bottom, white wall plates were grown for 24 hr, then treated with profiling compounds transferred by pinning to duplicate plates. JQ1 (250 nM) and DMSO were used for controls as above. After 24 hr, cells were washed and cDNAs were made using ABI Cells-to-Ct kit (Thermo Fisher Scientific®, Waltham, Mass.). MUC1 and HMBS delta Cp values were determined using a Roche LightCycler 480 Instrument and TaqMan probes for MUC1 FAM (4351368 assay ID Hs00159357_m1) and HMBS VIC (4448486-assay ID Hs00609297_m1) (Thermo Fisher Scientific®, Waltham, Mass.), in 5 μL reactions. The fold change effect of the compounds on total MUC1 mRNA was normalized to JQ1 and DMSO controls, as described above.

T1 sequence (Q9Y2I1 whole entry): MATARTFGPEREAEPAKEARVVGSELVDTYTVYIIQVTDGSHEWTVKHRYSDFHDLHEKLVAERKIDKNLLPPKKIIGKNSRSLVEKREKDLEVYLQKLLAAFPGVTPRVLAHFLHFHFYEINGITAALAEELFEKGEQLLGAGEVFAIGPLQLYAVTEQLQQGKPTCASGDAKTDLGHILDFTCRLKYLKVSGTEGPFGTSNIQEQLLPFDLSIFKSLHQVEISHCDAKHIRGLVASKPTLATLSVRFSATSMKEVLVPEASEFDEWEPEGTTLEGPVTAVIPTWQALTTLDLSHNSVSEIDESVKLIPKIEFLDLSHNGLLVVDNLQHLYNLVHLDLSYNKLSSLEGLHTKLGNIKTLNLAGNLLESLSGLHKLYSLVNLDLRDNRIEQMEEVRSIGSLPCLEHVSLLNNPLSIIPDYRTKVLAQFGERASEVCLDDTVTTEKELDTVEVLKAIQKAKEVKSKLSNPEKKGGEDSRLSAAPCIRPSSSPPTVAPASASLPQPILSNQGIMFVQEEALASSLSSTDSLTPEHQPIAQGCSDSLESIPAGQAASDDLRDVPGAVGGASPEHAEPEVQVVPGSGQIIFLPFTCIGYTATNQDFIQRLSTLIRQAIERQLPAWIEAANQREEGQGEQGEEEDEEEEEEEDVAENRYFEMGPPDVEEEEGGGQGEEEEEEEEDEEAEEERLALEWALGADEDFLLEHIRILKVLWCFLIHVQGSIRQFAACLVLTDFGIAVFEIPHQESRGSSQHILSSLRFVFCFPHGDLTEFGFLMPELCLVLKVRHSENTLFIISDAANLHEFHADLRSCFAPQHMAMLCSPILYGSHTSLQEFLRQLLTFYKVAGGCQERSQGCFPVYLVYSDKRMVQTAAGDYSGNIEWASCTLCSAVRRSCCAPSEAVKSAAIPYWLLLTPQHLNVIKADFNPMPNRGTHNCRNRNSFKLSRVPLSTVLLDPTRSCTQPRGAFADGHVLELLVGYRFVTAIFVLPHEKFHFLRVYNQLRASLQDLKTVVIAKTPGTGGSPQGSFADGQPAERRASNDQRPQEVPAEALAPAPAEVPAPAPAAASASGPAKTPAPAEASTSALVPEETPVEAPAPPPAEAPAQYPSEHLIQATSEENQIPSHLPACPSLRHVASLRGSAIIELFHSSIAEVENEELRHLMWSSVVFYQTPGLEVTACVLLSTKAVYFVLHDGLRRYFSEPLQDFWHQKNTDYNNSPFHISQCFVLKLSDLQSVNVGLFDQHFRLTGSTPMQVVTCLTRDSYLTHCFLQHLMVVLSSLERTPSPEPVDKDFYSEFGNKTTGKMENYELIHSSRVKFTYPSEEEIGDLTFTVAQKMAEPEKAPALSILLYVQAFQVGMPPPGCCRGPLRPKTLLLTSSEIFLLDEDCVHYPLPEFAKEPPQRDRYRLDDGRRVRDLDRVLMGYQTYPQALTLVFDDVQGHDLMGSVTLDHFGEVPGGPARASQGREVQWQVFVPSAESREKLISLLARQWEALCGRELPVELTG
Experimental for MUC1-fs: Cells grown on CellCarrier-96 or -384 well Ultra microplates (PerkinElmer) were fixed 10 min in PBS containing 4% PFA (Electron Microscopy Sciences), permeabilized 15 min in 0.5% Triton X100 (X100-100ML, Sigma-Aldrich), blocked for 1 hr in blocking reagent (100 mM Tris HCL pH8; 150 mM NaCL; 5 g/L Blocking Reagent [11096176001, Roche]) and treated for 1 hr with primary antibodies diluted in blocking reagent (1:500, monoclonal Fab-A-VSH anti-fsMUC1, AbD22655.2, Bio-Rad; 1:2000, monoclonal Mouse anti-MUC1 (CD227), 60137, Stemcell Technologies; 1:200, polyclonal, Mouse anti-GM130, ab169276, Abcam; 1:100, polyclonal, Rabbit anti-TMED9, 216201-AP, Proteintech; 1:800, polyclonal, Rabbit anti-SEC31A, 17913-1-AP, Proteintech; 1:400, monoclonal, Rabbit anti-EEA1 (C45B10), 3288S, Cell signaling technology; 1:100, polyclonal, Rabbit anti-ERGIC-53, E1031, Sigma-Aldrich; 1:400, monoclonal, Mouse anti-LAMP1 (D401S), 15665, Cell signaling technology; 1:1000, polyclonal, Rabbit anti-Calnexin, ab22595, Abcam; 1:2000, monoclonal, Rabbit anti-GM130 (D6B1) XP, 12480, Cell signaling technology; 1:200, monoclonal, Rabbit anti TNG46, ab50595, Abcam; 1:100, monoclonal, Rabbit anti-Rab7 (D95F2) XP, 9367, Cell signaling technology; 1:100, monoclonal, Rabbit anti-Rab11 (D4F5) XP, 5589, Cell signaling technology). Fixed, stained cells were washed three times in PBS and incubated for 1 hr with secondary antibodies in blocking solution (1:500, Alexa Fluor 488® Goat anti-Mouse IgG, A-11029, Thermo Fisher Scientific®; 1:500, Alexa Fluor 647® F(ab′)2-Goat anti-Rabbit IgG, A21246, Thermo Fisher Scientific®; 1:2000, Hoechst 33342, H3570, Thermo Fisher Scientific®), then washed three times in PBS and imaged.
Cell nuclei were first identified using Hoechst staining, and cell number was calculated. Cytoplasmic regions were then detected around each nucleus based on combined channels. The cells from the edge of the field were eliminated from the analysis. For the quantification of protein abundance, the total signal intensity value for each antibody was calculated separately in the cell cytoplasm and the average signal per cell was calculated for each well.
P cells were seeded 24 hr prior to compound treatment at a density of 12,000 cells/well in 384 well Cell Carrier Ultra plates (6057308, Perkin Elmer), pre-coated with 0.25 mg/mL Synthemax II SC Substrate (3535, Corning). Compounds of the repurposing library set (Corsello et al., 2017) were used at 5 doses (35, 3.5, 0.35, 0.035 and 0.0035 μM) for the primary screen and 10 doses (16, 5.6, 1.8, 0.6, 0.21, 0.07, 0.02, 0.008, 0.002 and 0.0008 μM) for the following screens. The compounds, in two replicates, were transferred from compound source plates to the cell plates using the HighRes Pin Tool. […] After 48 hr incubation, cells were fixed for 20 min in 4% PFA (Electron Microscopy Sciences) in PBS, washed twice, then permeabilized (10 min) with 0.5% Triton-X100 (X100-100ML, Sigma-Aldrich) in PBS and washed once more. Cells were blocked for 10 min at RT with Blocking solution (100 mM Tris HCL pH8; 150 mM NaCL; 5 g/L Blocking Reagent [11096176001, Roche]), then incubated 90 min at RT with one of the following primary antibodies in Roche Blocking solution: 1:500, monoclonal Fab-A-VSH anti-MUC1-fs, AbD22655.2, Bio-Rad; 1:2000, monoclonal mouse anti-MUC1 (214D4), 05-652-KC, Millipore; 1:1000, monoclonal, Rabbit anti-GM130 (D6B1) XP, 12480, Cell signaling technology. […]

One may read the EC50 as the concentration giving half of the maximal effect. For `CC(C)[C@@H]1[C@H]2CC[C@H](C2)[C@H]1N` (racemic) [BRD-4780, 2-endo-amino-3-exo-isopropylbicyclo[2.2.1]heptane], the bioavailability in the data set “in vivo” (male, 129S2/SvPasCrl) came to 119%. For the same compound, the “oral bioavailability (in words)” value in “in vivo” (po) was “excellent oral bioavailability”. Also, the “Nischarin thermal stability / engagement (CETSA)” value at Nischarin is on record as “no evidence indicative of direct engagement; also recorded: did not bind Nischarin”. In the data set with rhodopsin P23H, the “GFP fluorescence of GFP-rhodopsin P23H” value is given as “significantly decreased GFP fluorescence at 24 hours”. Further, the microsomal stability result in data set [1] is “good microsomal and plasma stability”. Besides, the EC50 in the data set with MUC1-fs was determined as 143 nM. The “rescue from THP-induced cell death” value with P cells is listed as “rescued P cells from THP-induced cell death”. In [2], the “anti-hypertensive efficacy in animal studies” value is “lack of efficacy as an anti-hypertensive”. Besides, the “protein binding (in words)” value in data set [3] is “low protein binding”. For the same compound, the “estimated percent protein bound” value in data set [3] (plasma) was 29.7%. Further, the “effect on MUC1 transcriptional regulation” value in the data set on total MUC1 mRNA is recorded as “no effect on MUC1 transcriptional regulation”.
